# Source: the PolyMetriX glass transition set
row,SMILES,glass transition temperature
1,*CCCCCC(*)CCCCCCCC (repeat unit),-72.00 °C
2,*Oc1c(C)cc(C2(c3cc(C)c(OC(=O)c4cccc(C(*)=O)c4)c(C)c3)CCC3CCCCC3C2)cc1C (repeat unit),261.00 °C
3,*CC(*)CCCCCCCCCCCCCCCC (repeat unit),55.00 °C
4,*C(=O)c1ccc2c(c1)C(=O)N(c1ccc(C(c3ccccc3)c3ccc(N4C(=O)c5ccc(*)cc5C4=O)cc3)cc1)C2=O (repeat unit),282.00 °C
5,*c1ccc(-c2ccc(-c3nc4cc(Oc5ccc(NC(=O)c6ccc7c(c6)C(=O)N(c6ccc(C(c8ccc(N9C(=O)c%10ccc(C(=O)Nc%11ccc(Oc%12ccc%13nc(-c%14ccccc%14)c(*)nc%13c%12)cc%11)cc%10C9=O)cc8)(C(F)(F)F)C(F)(F)F)cc6)C7=O)cc5)ccc4nc3-c3ccccc3)cc2)cc1 (repeat unit),290.00 °C
6,*CCNC(=O)c1ccc([Si](c2ccccc2)(c2ccccc2)c2ccc(C(=O)NCCN(*)c3ccc(/C=C/c4ccc([N+](=O)[O-])cc4)cc3)cc2)cc1 (repeat unit),165.00 °C
7,*c1ccc2c(c1)C(=O)N(c1cccc(P(=O)(c3ccc(Oc4ccc(C56CC7CC(CC(C7)C5)C6)cc4)cc3)c3cccc(N4C(=O)c5ccc(C(*)(C(F)(F)F)C(F)(F)F)cc5C4=O)c3)c1)C2=O (repeat unit),298.00 °C
8,*CC(*)(C)C(=O)O[Si](C)(C)C (repeat unit),97.50 °C
9,*c1ccc(C2(c3ccc(N4C(=O)c5ccc(Oc6ccc7c(c6)C(=O)N(*)C7=O)cc5C4=O)cc3)c3ccccc3-c3ccccc32)cc1 (repeat unit),373.00 °C
10,*CC(=O)NCC(=O)O* (repeat unit),67.00 °C
11,*c1ccc(Oc2ccc(Oc3ccc(P(=O)(c4ccccc4)c4ccc(Oc5ccc(Oc6ccc(-c7nc8ccccc8nc7*)cc6)cc5)cc4)cc3)cc2)cc1 (repeat unit),209.00 °C
12,*c1ccc(Oc2ccc(-c3ccc(Oc4ccc(N5C(=O)c6ccc(Oc7ccc(Oc8ccc9c(c8)C(=O)N(*)C9=O)cc7)cc6C5=O)cc4)cc3)cc2)cc1 (repeat unit),230.00 °C
13,*Oc1ccc(S(=O)(=O)c2ccc(Oc3ccc(S(=O)(=O)c4ccc(-c5ccc(S(=O)(=O)c6ccc(*)cc6)cc5)cc4)cc3)cc2)cc1 (repeat unit),267.00 °C
14,*c1ccc(Oc2ccc(C(c3ccc(Oc4ccc(N5C(=O)c6ccc(Oc7ccccc7Oc7ccc8c(c7)C(=O)N(*)C8=O)cc6C5=O)cc4C(F)(F)F)cc3)(C(F)(F)F)C(F)(F)F)cc2)c(C(F)(F)F)c1 (repeat unit),191.00 °C
15,*CC(*)c1ccc(C(=O)OCCC)cc1 (repeat unit),92.00 °C
16,*CC(*)c1c(Cl)cccc1Cl (repeat unit),165.00 °C
17,*c1ccc(Oc2ccc(-n3c(=O)c4c(Oc5ccc(OCCCCCCCCCCCC)cc5)c5c(=O)n(*)c(=O)c5c(Oc5ccc(OCCCCCCCCCCCC)cc5)c4c3=O)cc2)cc1 (repeat unit),218.00 °C
18,*c1ccc(Oc2ccc(N3C(=O)c4cccc(Oc5ccc(Sc6ccc(Oc7cccc8c7C(=O)N(*)C8=O)cc6)cc5)c4C3=O)cc2)cc1 (repeat unit),234.00 °C
19,*C(=O)OCCOC(=O)N1CCN(*)CC1 (repeat unit),60.00 °C
20,*c1ccc(Oc2ccc(Oc3ccc(N4C(=O)c5cccc(Oc6ccc(C(C)(C)c7ccc(Oc8cccc9c8C(=O)N(*)C9=O)cc7)cc6)c5C4=O)c(C)c3)cc2)cc1C (repeat unit),222.00 °C

# The remaining lines, values ahead:
row,glass transition temperature,SMILES
1,57.00 °C,*Oc1ccc(NC(=O)c2ccc(C(=O)Nc3ccc(OC4COC5C(*)COC45)cc3)cc2)cc1 (repeat unit)
2,87.00 °C,*CCCCCCOC(=O)Nc1ccc(C)c(NC(=O)OCCCCCCOc2ccc(-c3ccc(O*)cc3)cc2)c1 (repeat unit)
3,117.00 °C,*c1ccc(Oc2ccc(-c3csc(/N=C/c4ccc(OCCCCCCOc5ccc(/C=N/c6nc(*)cs6)cc5)cc4)n3)cc2)cc1 (repeat unit)
4,225.00 °C,*Nc1ccc(NC(=O)c2ccc(NC(=O)CCCCCCCCC(=O)Nc3ccc(C(*)=O)cc3)cc2)cc1C(=O)OCCCCCCCCCCCCCC (repeat unit)
5,175.00 °C,*Oc1ccc(C(C)(c2ccccc2)c2ccc(Oc3c(F)c(F)c(C(=O)c4c(F)c(F)c(*)c(F)c4F)c(F)c3F)cc2)cc1 (repeat unit)
6,243.00 °C,*Oc1ccc(C(CC)(c2ccccc2)c2ccc(OC(=O)c3ccc(C(*)=O)cc3)cc2)cc1 (repeat unit)
7,142.00 °C,*CCN(CCNC(=O)c1ccc2c(c1)C(=O)N(*)C2=O)c1ccc(/C=C/c2ccc([N+](=O)[O-])cc2)cc1 (repeat unit)
8,68.00 °C,*CC(*)(C)C(=O)OCCCOc1ccc(C(=O)Oc2ccc3ccc(=O)oc3c2)cc1 (repeat unit)
9,72.50 °C,*Oc1ccc(NC(=O)CCCCCCC(=O)Nc2ccc(OC3COC4C(*)COC34)cc2)cc1 (repeat unit)
10,30.00 °C,*OC(=O)c1cccc(OCCCCCCCCCCOc2cccc(C(=O)OC3COC4C(*)COC34)c2)c1 (repeat unit)
11,50.00 °C,*Oc1ccc(CC(NC(=O)CCc2ccc(OC(=O)COCCOCC(*)=O)cc2)C(=O)OCC(C)C)cc1 (repeat unit)
12,234.20 °C,*Nc1ccc(NC(=O)c2cc(-c3ccc(C(=O)OC)c(C(*)=O)c3)ccc2C(=O)OC)cc1 (repeat unit)
13,105.00 °C,*Oc1ccccc1C(=O)OC(=O)c1ccccc1OC(=O)c1cccc(C(*)=O)c1 (repeat unit)
14,61.30 °C,*O[Si](*)(C)CCCOc1ccc(C(=O)Oc2ccc(-c3ccc(OC(=O)c4cc(OCC)c(OCC)c(OCC)c4)cc3)cc2)cc1 (repeat unit)
15,155.00 °C,*Oc1ccc(C(C)(C)c2ccc(Oc3ccc(C(=O)c4ccc(*)cc4)cc3)cc2)cc1 (repeat unit)
16,38.00 °C,*CCC[Si](*)(c1ccc(C)cc1)c1ccc(C)cc1 (repeat unit)
17,201.00 °C,*c1ccc(Oc2ccc(C(=O)c3ccc(Oc4ccc(N5C(=O)c6ccc(Oc7cccc(Oc8ccc9c(c8)C(=O)N(*)C9=O)c7)cc6C5=O)cc4)cc3)cc2)cc1 (repeat unit)
18,310.00 °C,*Oc1c(C)c(C)c(Oc2ccc(NC(=O)c3ccc(C(=O)Nc4ccc(*)cc4)cc3)cc2)c(C)c1C (repeat unit)
19,53.00 °C,*Oc1ccc(CC(NC(=O)CCc2ccc(OC(=O)COCCOCC(*)=O)cc2)C(=O)OCC)cc1 (repeat unit)
20,124.00 °C,*Oc1ccc(C(C)(C)c2ccc(OC(*)=O)c(C)c2)cc1C (repeat unit)
21,8.00 °C,*CCOC(=O)CCCCC(=O)OCCOC(=O)c1ccc(C(=O)O*)cc1 (repeat unit)
22,100.00 °C,*Oc1c(Cl)cc(C(C)(C)c2cc(Cl)c(OC(=O)CCCCC(*)=O)c(Cl)c2)cc1Cl (repeat unit)
23,107.00 °C,*Oc1ccc(Sc2ccc(OC(=O)OC3C(C)(C)C(OC(*)=O)C3(C)C)cc2)cc1 (repeat unit)
